The term IC50 denotes the concentration needed to halve the response being measured.

The test addresses T1, PPARγ ligand binding domain (LBD) (amino acids 195-475) (Homo sapiens, UniProt P37231).
T1 construct: polyHis; made in house; host or cells: Escherichia coli
T1 sequence (P37231 195-475 isoform P37231-2): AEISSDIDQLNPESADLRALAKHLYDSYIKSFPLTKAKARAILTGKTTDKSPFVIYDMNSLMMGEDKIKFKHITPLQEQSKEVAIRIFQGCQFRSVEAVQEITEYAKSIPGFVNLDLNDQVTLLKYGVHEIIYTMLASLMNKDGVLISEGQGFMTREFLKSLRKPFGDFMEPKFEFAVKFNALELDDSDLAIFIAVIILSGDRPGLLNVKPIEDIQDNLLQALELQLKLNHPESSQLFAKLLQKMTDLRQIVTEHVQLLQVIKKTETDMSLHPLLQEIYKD
The test can be described thus: PPAR-γ binding assay (spin plate / gel filtration binding assay, displacement of [3H]BRL 49653). The following applies: read-out: IC50 range in the PPAR-γ Binding Assay. The procedure: The activity of a given compound in binding to PPAR-γ can be assayed routinely according to procedures known in the art. […] The PPAR-γ binding assay described below was used to determine the PPAR-γ binding activities of the compounds of the invention.
Compounds were tested for their ability to bind to PPARγ using a spin plate assay (gel filtration binding assay). […] Each compound was tested in triplicate. […] The plates were centrifuged (Beckman GS-6R) at 2500 rpm for 5 minutes, 170 μl Scitisafe® scintillation fluid (Fisher) was added to each well, the plates were sealed, and after 1 hour, were counted in a Wallac MicroBeta counter. The amount of nonspecific binding, as assessed by control wells containing 10 μM of the corresponding unlabeled ligand, was subtracted from each data point. For each compound tested, the data was averaged and plots of ligand concentration versus CPM of radioligand bound were constructed. Apparent IC50 values were estimated from nonlinear least-squares fit of the data assuming simple competitive binding.
For orientation: SEC sorts molecules by how far they enter the pores of the column.
Regarding `COc1ccc(-c2c(C(=O)O)n(C(=O)c3cccc(C(F)(F)F)c3)c3ccccc23)cc1` [Example 338, 3-(4-Methoxyphenyl)-1-{[3-(trifluoromethyl)phenyl]carbonyl}indole-2-carboxylic Acid], the IC50 lay within 10 to 10000 nM. To `COc1cccc(Cn2c(C(=O)O)c(-c3ccc(C(C)(C)C)cc3)c3cc(CC4CC4)ccc32)c1` [Example 253] belongs 0.1 to 9.99 nM. As for `COc1cccc(Cn2c(C(=O)O)c(-c3ccc(OCC4CC4)cc3)c3ccccc32)c1` [Example 305, 3-[4-(Cyclopropylmethoxy)phenyl]-1-(3-methoxybenzyl)-1H-indole-2-carboxylic acid], the IC50 is 0.1 to 9.99 nM. For `COc1cccc(Cn2c(C(=O)O)c(-c3ccc(OCC4CCCCO4)cc3)c3ccccc32)c1` (centres unmarked) [Example 306] the value was 10 to 10000 nM; for `COc1cccc(Cn2c(C(=O)O)c(-c3ccc(OCC4CC4)cc3)c3cc(OCC4CCC4)ccc32)c1` [Example 314], 0.1 to 9.99 nM; for `COc1cccc(Cn2c(C(=O)O)c(-c3ccc(C(C)(C)C)cc3)c3cccc(CC4CC4)c32)c1` [Example 256], 10 to 10000 nM. To `COc1cccc(Cn2c(C(=O)O)c(-c3ccc(SC4CC4)cc3)c3ccccc32)c1` [Example 263] belongs 0.1 to 9.99 nM; to `COc1cccc(Cn2c(C(=O)O)c(-c3ccc(OCC(=O)c4ccc(N5CCCC5)cc4)cc3)c3ccccc32)c1` [Example 310], 10 to 10000 nM.

`COc1cccc(Cn2c(C(=O)O)c(-c3ccc(OCC4CC4)cc3)c3cc(OCC(=O)O)ccc32)c1` [Example 267]: the IC50 was in the range of 10 to 10000 nM. For `COc1cccc(Cn2c(C(=O)O)c(-c3ccc(OCc4ccc5ccccc5n4)cc3)c3ccccc32)c1` [Example 307] the value was 0.1 to 9.99 nM; for `COc1cccc(Cn2c(C(=O)O)c(-c3cccc(OCC4CC4)c3)c3cc(OCCOCc4ccccc4)ccc32)c1` [Example 272], 0.1 to 9.99 nM; for `COc1cccc(Cn2c(C(=O)O)c(-c3ccc(OCC4CC4)cc3)c3cc(OCc4ccc(C(C)(C)C)cc4)ccc32)c1` [Example 318], 10 to 10000 nM. For `O=C(O)c1c(-c2ccc(S(=O)(=O)C3CC3)cc2)c2ccccc2n1Cc1cccc(C(F)(F)F)c1` [Example 353, 3-[4-(Cyclopropylsulfonyl)phenyl]-1-{[3-(trifluoromethyl)phenyl]methyl}indole-2-carb-oxylic acid] the value was 0.1 to 9.99 nM; for `COc1cccc(Cn2c(C(=O)O)c(-c3ccc(C(=O)N(C)C4CCCC4)cc3)c3ccccc32)c1` [Example 304], 0.1 to 9.99 nM; for `O=C(O)c1c(-c2nc3cc(Cl)ccc3o2)c2ccccc2n1Cc1cccc(C(F)(F)F)c1` [Example 248], 10 to 10000 nM. For `O=C(O)c1c(-c2cccc(OCC3CC3)c2)c2ccccc2n1Cc1cccc(OC(F)(F)F)c1` [Example 340] the value was 0.1 to 9.99 nM. Consider `COc1cccc(Cn2c(C(=O)O)c(-c3ccc(C(C)(C)C)cc3)c3cccc(C(=O)C4CC4)c32)c1` [Example 252], for which the IC50 is 10 to 10000 nM.

In the case of `O=C(O)c1c(-c2nc3ccccc3o2)c2ccccc2n1Cc1cccc(C(F)(F)F)c1` [Example 247], the IC50 lay in the range of 10 to 10000 nM.

For `CC(C)(C)c1ccc2oc(-c3c(C(=O)O)n(Cc4cccc(C(F)(F)F)c4)c4ccccc34)nc2c1` [Example 249], the IC50 fell in the range of 0.1 to 9.99 nM. To `COc1cccc(Cn2c(C(=O)O)c(-c3ccc(C4(C)CC4)cc3)c3ccccc32)c1` [Example 258] belongs 0.1 to 9.99 nM. To `COc1cccc(Cn2c(C(=O)O)c(-c3ccc(OCC4CC4)cc3)c3cc(OCc4ccc(C(=O)O)cc4)ccc32)c1` [Example 322] belongs 10 to 10000 nM; to `COCCOc1ccc2c(c1)c(-c1ccc(OCC3CC3)cc1)c(C(=O)O)n2Cc1cccc(OC)c1` [Example 312], 0.1 to 9.99 nM. For `COc1ccc(-c2c(C(=O)O)n(CC(=O)c3ccccc3)c3ccccc23)cc1` [Example 281] the value was 10 to 10000 nM; for `COc1ccc(-c2c(C(=O)O)n(Cc3cccc(OC)c3)c3ccc(OCCN(C)c4nc5ccccc5o4)cc23)cc1` [Example 233], 10 to 10000 nM. In the case of `CCCOc1ccc2c(c1)c(-c1ccc(OCC3CC3)cc1)c(C(=O)O)n2Cc1cccc(OC)c1` [Example 331], the IC50 lay within 0.1 to 9.99 nM. For `COc1cccc(Cn2c(C(=O)O)c(-c3ccc(OCC4CC4)cc3)c3cc(OCc4cccc(C(F)(F)F)c4)ccc32)c1` [Example 321] the value was 0.1 to 9.99 nM; for `O=C(O)c1[nH]c2c(C(=O)c3ccccc3)cccc2c1-c1ccccc1` [Example 251], 10 to 10000 nM; for `CCOc1ccc2c(c1)c(-c1ccc(OCC3CC3)cc1)c(C(=O)O)n2Cc1cccc(OC)c1` [Example 330, 3-[4-(Cyclopropylmethoxy)phenyl]-5-ethoxy-1-(3-methoxybenzyl)-1H-indole-2-carboxylic acid], 0.1 to 9.99 nM. For `COc1ccc(-c2c(C(=O)O)n(S(=O)(=O)c3cccc(C(F)(F)F)c3)c3ccccc23)cc1` [Example 337, 3-(4-Methoxyphenyl)-1-{[3-(trifluoromethyl)phenyl]sulfonyl}indole-2-carboxylic acid] the value was 10 to 10000 nM; for `COc1cccc(Cn2c(C(=O)O)c(-c3ccc(OCC4CC4)cc3)c3cc(OCCCc4ccccc4)ccc32)c1` [Example 320], 0.1 to 9.99 nM. For `CCOc1ccc(-c2c(C(=O)O)n(Cc3ccc(F)cc3)c3ccc(CCOCC4CC4)cc23)cc1` [Example 348, 5-[2-(Cyclopropylmethoxy)ethyl]-3-(4-ethoxyphenyl)-1-(4-fluorobenzyl)-1H-indole-2-carboxylic acid] the value was 0.1 to 9.99 nM. For the compound `O=C(O)c1c(-c2ccc(C3CC3)cc2)c2ccccc2n1Cc1cccc(C(F)(F)F)c1` [Example 260], the IC50 was in the range of 0.1 to 9.99 nM. Consider `O=C(O)c1c(C(=O)N2CCOCC2)c2ccccc2n1Cc1cccc(C(F)(F)F)c1` [Example 245], for which the IC50 lay in the range of 10 to 10000 nM. To `COc1ccc(-c2c(C(=O)NS(=O)(=O)c3ccc(OC)cc3)n(Cc3cccc(C(F)(F)F)c3)c3ccccc23)cc1` [Example 357] belongs 0.1 to 9.99 nM; to `COc1cccc(Cn2c(C(=O)O)c(-c3ccc(OCC4CC4)cc3)c3cc(OCC=O)ccc32)c1` [Example 313], 0.1 to 9.99 nM. For `COc1ccc(-c2c(C(=O)O)n(/C=C/c3ccccc3)c3ccccc23)cc1` [Example 349, 1-((1E)-2-Phenylvinyl)-3-(4-methoxyphenyl)indole-2-carboxylate] the value was 0.1 to 9.99 nM. To `COc1cccc(Cn2c(C(=O)O)c(-c3ccc(C4CC4)cc3)c3ccccc32)c1` [Example 261] belongs 0.1 to 9.99 nM. With `O=C(O)c1c(-c2ccc(OCC3CC3)cc2)c2ccccc2n1Cc1cccc(C(F)(F)F)c1` [Example 308], the IC50 lay in the range of 0.1 to 9.99 nM. For `CCOCCOc1ccc2c(c1)c(-c1cccc(OCC3CC3)c1)c(C(=O)O)n2Cc1cccc(OC)c1` [Example 271] the value was 0.1 to 9.99 nM; for `COc1cccc(Cn2c(C(=O)O)c(-c3ccc(C(C)(C)C)cc3)c3cc(C(O)C4CC4)ccc32)c1` (centres unmarked) [Example 255], 10 to 10000 nM.

Turning to `COc1cccc(Cn2c(C(=O)O)c(-c3cccc(NC(=O)C4CC4)c3)c3ccccc32)c1` [Example 326], the IC50 was in the range of 10 to 10000 nM. To `CC1(C)COC(c2c(C(=O)O)n(Cc3cccc(C(F)(F)F)c3)c3ccccc23)=N1` [Example 238] belongs 10 to 10000 nM; to `COc1ccc(-c2c(C(=O)C(F)(F)F)n(Cc3cccc(C(F)(F)F)c3)c3ccccc23)cc1` [Example 360, 2,2,2-Trifluoro-1-{3-(4-methoxyphenyl)-1-[3-(trifluoromethyl)benzyl]-1H-indol-2-yl}ethanone], 10 to 10000 nM; to `CC(=O)c1cnc(-c2c(C(=O)O)n(Cc3cccc(C(F)(F)F)c3)c3ccccc23)s1` [Example 342], 0.1 to 9.99 nM. With `C=CCOc1ccc2c(c1)c(-c1ccc(OCC3CC3)cc1)c(C(=O)O)n2Cc1cccc(OC)c1` [Example 333], the half-maximal inhibitory concentration (IC50) was in the range of 10 to 10000 nM. Consider `COc1cccc(Cn2c(C(=O)O)c(-c3ccc(C(C)(C)C)cc3)c3cc(CCOCC4CC4)ccc32)c1` [Example 275], for which the IC50 was 0.1 to 9.99 nM.

`COc1cccc(Cn2c(C(=O)O)c(-c3ccc(OCC4CC4)cc3)c3cc(OCc4ccc(C(F)(F)F)cc4)ccc32)c1` [Example 319]: the IC50 was 10 to 10000 nM.

On to `CN1CCCC1CCOc1ccc2cc(C(=O)O)n(Cc3cccc(C(F)(F)F)c3)c2c1` (centres unmarked) [Example 280], for which the IC50 lay in the range of 10 to 10000 nM. For `O=C(O)c1c(-c2nc3ccccc3s2)c2ccccc2n1Cc1cccc(OCC2CC2)c1` [Example 250] the value was 0.1 to 9.99 nM; for `COc1ccc(-c2c(C(=O)O)n(Cc3cccc(C(F)(F)F)c3)c3ccc(OCCCN(C)c4nc5ccccc5o4)cc23)cc1` [Example 234], 0.1 to 9.99 nM. For the compound `CN1CCN(C(=O)c2c(C(=O)O)n(Cc3cccc(C(F)(F)F)c3)c3ccccc23)CC1` [Example 246], the IC50 was in the range of 10 to 10000 nM. For `COc1cccc(Cn2c(C(=O)O)c(-c3ccc(OCC4CC4)cc3)c3cc(OCC4CC4)ccc32)c1` [Example 334] the value was 0.1 to 9.99 nM; for `Cc1sc(-c2ccccc2)nc1CCOc1ccc2c(c1)cc(C(=O)O)n2CC1CCCO1` (centres unmarked) [Example 276], 10 to 10000 nM.
